# In PubChem BioAssay (NCI):
# Where “and” joins values, the source holds several entries; their conditions need not be identical. Identical values can stand only once.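 Method: 48-hour compound exposure of cells in 96-well plates, five concentrations, linear interpolation of endpoints. GI50 = concentration required for 50% inhibition of growth. The concentration for full growth arrest is given as TGI.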
# Experiments:
# Assay in all cases: NCI tumour cell line growth inhibition, 48 h
# [1] = system: 786-0 renal
# [2] = system: A498 renal
# [3] = system: A549 NSCLC
# [4] = system: ACHN renal
# [5] = system: BT-549 breast
# [6] = system: CAKI-1 renal
# [7] = system: CCRF-CEM leukemia
# [8] = system: COLO 205 colon
# [9] = system: DU-145 prostate
# [10] = system: EKVX NSCLC
# [11] = system: HCC-2998 colon
# [12] = system: HCT-116 colon
# [13] = system: HCT-15 colon
# [14] = system: HL-60(TB) leukemia
# [15] = system: HOP-62 NSCLC
# [16] = system: HOP-92 NSCLC
# [17] = system: HT29 colon
# [18] = system: IGROV1 ovarian
# [19] = system: K-562 leukemia
# [20] = system: KM12 colon
# [21] = system: LOX IMVI melanoma
# [22] = system: M14 melanoma
# [23] = system: MALME-3M melanoma
# [24] = system: MCF7 breast
# [25] = system: MDA-MB-231 breast
# [26] = system: MDA-MB-435
# [27] = system: MDA-N
# [28] = system: MOLT-4 leukemia
# [29] = system: NCI-H226 lung
# [30] = system: NCI-H23 lung
# [31] = system: NCI-H460 lung
# [32] = system: NCI-H522 lung
# [33] = system: NCI/ADR-RES ovarian
# [34] = system: OVCAR-3 ovarian
# [35] = system: OVCAR-4 ovarian
# [36] = system: OVCAR-5 ovarian
# [37] = system: OVCAR-8 ovarian
# [38] = system: PC-3 prostate
# [39] = system: RPMI-8226 leukemia
# [40] = system: RXF 393 renal
# [41] = system: SF-268 CNS
# [42] = system: SF-295 CNS
# [43] = system: SF-539 CNS
# [44] = system: SK-MEL-2 melanoma
# [45] = system: SK-MEL-28 melanoma
# [46] = system: SK-MEL-5 melanoma
# [47] = system: SK-OV-3 ovarian
# [48] = system: SN12C renal
# [49] = system: SNB-19 CNS
# [50] = system: SNB-75 CNS
# [51] = system: SR leukemia
# [52] = system: SW-620 colon
# [53] = system: T-47D breast
# [54] = system: TK-10 renal
# [55] = system: U251 CNS
# [56] = system: UACC-257 melanoma
# [57] = system: UACC-62 melanoma
# [58] = system: UO-31 renal
smiles,measurement,setting,value
O=C1C=C(OCCCl)C(=O)c2c(O)ccc(O)c21,GI50,[1],2520 nM
same,TGI,[1],3220 nM and 6750 nM
same,GI50,[2],2380 nM
same,TGI,[2],2550 nM and 4250 nM
same,GI50,[3],1630 nM
same,TGI,[3],686 nM and 3410 nM
same,GI50,[4],1890 nM
same,TGI,[4],2890 nM and 4950 nM
same,TGI,[5],477 nM
same,GI50,[6],1750 nM
same,TGI,[6],3880 nM and 3160 nM
same,GI50,[7],1320 nM
same,TGI,[7],3500 nM
same,GI50,[8],592 nM
same,TGI,[8],338 nM and 1920 nM
same,GI50,[9],1010 nM
same,TGI,[9],746 nM and 2290 nM
same,TGI,[10],3360 nM and 3730 nM
same,GI50,[11],1120 nM
same,TGI,[11],3030 nM and 2470 nM
same,GI50,[12],1330 nM
same,TGI,[12],1330 nM and 3200 nM
same,GI50,[13],1400 nM
same,TGI,[13],433 nM and 3150 nM
same,GI50,[14],230 nM
same,TGI,[14],2580 nM and 1170 nM
same,GI50,[15],1970 nM
same,TGI,[15],1520 nM and 3390 nM
same,GI50,[16],3430 nM
same,TGI,[16],3800 nM and 8000 nM
same,GI50,[17],1120 nM
same,TGI,[17],1030 nM and 2890 nM
same,TGI,[18],3430 nM and 3660 nM
same,GI50,[19],1170 nM
same,TGI,[19],3110 nM
same,GI50,[20],6400 nM
same,TGI,[20],4380 nM and 20600 nM
same,GI50,[21],465 nM
same,TGI,[21],392 nM and 1830 nM
same,GI50,[22],741 nM
same,TGI,[22],320 nM and 2190 nM
same,GI50,[23],215 nM
same,TGI,[23],340 nM and 911 nM
same,GI50,[24],399 nM
same,TGI,[24],472 nM and 1750 nM
same,GI50,[25],3290 nM
same,TGI,[25],3270 nM and 8960 nM
same,GI50,[26],157 nM
same,TGI,[26],389 nM and 294 nM
same,GI50,[27],236 nM
same,TGI,[27],290 nM and 539 nM
same,GI50,[28],368 nM
same,TGI,[28],6500 nM and 1580 nM
same,TGI,[29],5070 nM and 4640 nM
same,GI50,[30],1500 nM
same,TGI,[30],503 nM and 3220 nM
same,GI50,[31],2150 nM
same,TGI,[31],2050 nM and 4670 nM
same,GI50,[32],1570 nM
same,TGI,[32],4440 nM and 3140 nM
same,GI50,[33],9410 nM
same,GI50,[34],286 nM
same,TGI,[34],2330 nM and 1080 nM
same,TGI,[35],3010 nM and 3100 nM
same,GI50,[36],2010 nM
same,TGI,[36],2980 nM and 3560 nM
same,GI50,[37],1590 nM
same,TGI,[37],5080 nM and 3030 nM
same,GI50,[38],2670 nM
same,TGI,[38],4320 nM and 10100 nM
same,GI50,[39],1380 nM
same,TGI,[39],6780 nM and 4080 nM
same,TGI,[40],3380 nM and 3960 nM
same,GI50,[41],3980 nM
same,TGI,[41],2600 nM and 15300 nM
same,GI50,[42],2440 nM
same,TGI,[42],3000 nM and 4530 nM
same,GI50,[43],1580 nM
same,TGI,[43],2820 nM and 2930 nM
same,GI50,[44],2100 nM
same,TGI,[44],1400 nM and 4390 nM
same,GI50,[45],2080 nM
same,TGI,[46],321 nM and 299 nM
same,GI50,[47],25200 nM
same,GI50,[48],1580 nM
same,TGI,[48],526 nM and 3030 nM
same,TGI,[49],2560 nM
same,GI50,[50],2100 nM
same,TGI,[50],970 nM and 3740 nM
same,TGI,[51],3220 nM
same,GI50,[52],296 nM and 1560 nM
same,TGI,[52],1150 nM and 3850 nM
same,TGI,[53],4520 nM
same,GI50,[54],3000 nM
same,TGI,[54],5550 nM and 6830 nM
same,GI50,[55],2760 nM
same,TGI,[55],3330 nM and 7480 nM
same,GI50,[56],762 nM
same,TGI,[56],358 nM and 2440 nM
same,GI50,[57],386 nM
same,TGI,[57],519 nM and 1610 nM
same,GI50,[58],1950 nM
same,TGI,[58],2760 nM and 4500 nM
